In US20020077345A1, “Cis-substituted aminocycloalkylpyrrolidine derivatives” (priority 1997, published 2002):
Converted amounts (≈) assume the structure as drawn. Where a name gives a salt, the structure may show the parent alone. Read-outs that look alike come from different tables or passages of the source. Marks after values point to notes of the source that are not given here.

Legend:
[1] = system: Slc:ddy male mice; assay: Acute toxicity, intravenous administration to mice; assay type: in vivo; settings: deaths/mice dosed
Protocol: A solution of 5-amino-7-[4-(R)-(1-aminocyclopropyl)-3-(S)-fluoro-1-pyrrolidinyl]-6-fluoro-1-[2-(S)-fluoro-1-(R)-cyclopropyl]-1,4-dihydro-8-methyl-4-oxoquinoline-3-carboxylic acid (abbreviated as cis) hydrochloride (Example 2) or 5-amino-7-[4-(R)-(1-aminocyclopropyl)-3-(R)-fluoro-1-pyrrolidinyl]-6-fluoro-1-(2-(S)-fluoro-1-(R)-cyclopropyl]-1,4-dihydro-8-methyl-4-oxoquinoline-3-carboxylic acid (abbreviated as trans) hydrochloride in distilled water for injection was administered intravenously to Slc:ddy male mice (five mice per group) and the symptoms are observed. The results are as follows.

[2] = system: Str. pyogenes, G-36; assay: Antimicrobial activity (MIC), standard method of Japan Society of Chemotherapy; assay type: cell-based
Protocol: (§1) To further illustrate the present invention in greater detail, and not by way of limitation, the following Examples will be given. The antimicrobial activity of each target compound was evaluated in accordance with the standard method specified by Japan Society of Chemotherapy and expressed in MIC (μg/ml).

[3] = system: Pr. mirabilis, IFO-3849; assay: as above; assay type: cell-based
Protocol: as §1

[4] = system: Ser. marcescens, 10100; assay: as above; assay type: cell-based
Protocol: as §1

[5] = system: S. aureus, 209P; assay: as above; assay type: cell-based
Protocol: as §1

[6] = system: Pr. vulgaris, 08601; assay: as above; assay type: cell-based
Protocol: as §1

[7] = system: S. flexneli, 2A 5503; assay: as above; assay type: cell-based
Protocol: as §1

[8] = system: S. epidermidis, 56500; assay: as above; assay type: cell-based
Protocol: as §1

[9] = system: Ps. aeruginosa, 32104; assay: as above; assay type: cell-based
Protocol: as §1

[10] = system: Ps. aeruginosa, 32121; assay: as above; assay type: cell-based
Protocol: as §1

[11] = system: X. maltophilia, 11D-1275; assay: as above; assay type: cell-based
Protocol: as §1

[12] = system: Str. faecalis, ATCC-19433; assay: as above; assay type: cell-based
Protocol: as §1

[13] = system: E. coli, NIHJ; assay: as above; assay type: cell-based
Protocol: as §1

[14] = system: S. aureus, 870307; assay: as above; assay type: cell-based
Protocol: as §1

[15] = 150 mg/kg intravenously, five per group
[16] = Streptococcus pyogenes, G36, read-out: MIC
[17] = Proteus mirabilis, IFO3849, read-out: MIC
[18] = Serratia marcescens, read-out: MIC
[19] = Staphylococcus aureus, read-out: MIC
[20] = Proteus vulgaris, read-out: MIC
[21] = Staphylococcus epidermidis, read-out: MIC
[22] = Pseudomonas aeruginosa, read-out: MIC
[23] = Stenotrophomonas maltophilia, 11D1275, read-out: MIC
[24] = Enterococcus faecalis, ATCC19433, read-out: MIC
[25] = Escherichia coli, read-out: MIC

Cc1c(N2CC(F)[C@@H](C3(N)CCC3)C2)c(F)c(N)c2c(=O)c(C(=O)O)cn(C3CC3F)c12 (single isomer, unassigned; isomer b) [Example 9]
Number of death [1, 15]: same result

Cc1c(N2CC(CO)C(C3(N)CC3)C2)c(F)c(N)c2c(=O)c(C(=O)O)cn(C3CC3)c12 (stereo not drawn) [Example 1, 5-Amino-7-[cis-4-(1-aminocycloproiyl)-3-hydroxymethyl-1-pyrrolidinyl]-1-cyclopropyl-6-fluoro-1,4-dihydro-8-methyl-4-oxoquinoline-3-carboxylic acid]
Number of death [1, 15]: same result

Cc1c(N2C[C@@H](F)[C@@H](C3(N)CC3)C2)c(F)c(N)c2c(=O)c(C(=O)O)cn([C@@H]3C[C@@H]3F)c12 [Example 2, 5-Amino-7-[4-(R)-(1-aminocyclopropyl)-3-(S)-fluoro-1-pyrrolidinyl]-6-fluoro-1-[2-(S)-fluoro-1-(R)-cyclopropyl1-1,4-dihydro-8-methyl-4-oxoquinoline-3-carboxylic acid hydrochloride]
Number of death [1, 15]: 0/5
MIC [2, 16]: ≤ 0.003 µg/mL
MIC [3, 17]: 0.025 µg/mL
MIC [4, 18]: 0.05 µg/mL
MIC [5, 19]: ≤ 0.003 µg/mL
MIC [6, 20]: 0.013 µg/mL
MIC [7]: ≤ 0.003 µg/mL
MIC [8, 21]: ≤ 0.003 µg/mL
MIC [9, 22]: 0.1 µg/mL
MIC [10, 22]: 0.05 µg/mL
MIC [11, 23]: 0.05 µg/mL
MIC [12, 24]: 0.025 µg/mL
MIC [13, 25]: ≤ 0.003 µg/mL
MIC [14, 19]: 0.025 µg/mL

COc1c(N2C[C@@H](F)[C@@H](C3(N)CC3)C2)c(F)c(N)c2c(=O)c(C(=O)O)cn([C@@H]3C[C@@H]3F)c12 [Example 3]
Number of death [1, 15]: same result
MIC [2, 16]: 0.013 µg/mL (≈ 0.0287 µM)
MIC [3, 17]: 0.1 µg/mL (≈ 0.221 µM)
MIC [4, 18]: 0.2 µg/mL (≈ 0.442 µM)
MIC [5, 19]: ≤ 0.003 µg/mL
MIC [6, 20]: 0.05 µg/mL (≈ 0.111 µM)
MIC [7]: 0.006 µg/mL (≈ 0.0133 µM)
MIC [8, 21]: 0.006 µg/mL (≈ 0.0133 µM)
MIC [9, 22]: 0.39 µg/mL (≈ 0.862 µM)
MIC [10, 22]: 0.2 µg/mL (≈ 0.442 µM)
MIC [11, 23]: 0.2 µg/mL (≈ 0.442 µM)
MIC [12, 24]: 0.05 µg/mL (≈ 0.111 µM)
MIC [13, 25]: 0.006 µg/mL (≈ 0.0133 µM)
MIC [14, 19]: 0.025 µg/mL (≈ 0.0553 µM)

C[C@H]1COc2c(N3C[C@@H](F)[C@@H](C4(N)CC4)C3)c(F)cc3c(=O)c(C(=O)O)cn1c23 [Example 4, 10-[4-(R)-(1-Aminocyclopropyl)-3-(S)-fluoro-1-pyrrolidinyl]-9-fluoro-2,3-dihydro-3-(S)-methyl-7-oxo-7H-pyrido[1,2,3-de][1,4]benzoxazine-6-carboxylic acid]
Number of death [1, 15]: same result

COc1c(N2C[C@@H](F)[C@@H](C3(N)CC3)C2)c(F)cc2c(=O)c(C(=O)O)cn([C@@H]3C[C@@H]3F)c12 [Example 5, 7-[4-(R)-(1-Aminocyclopropyl)-3-(S)-fluoro-1-pyrrolidinyl]-6-fluoro-1-[2-(S)-fluoro-1-(R)-cycloproyyl]-1,4-dihydro-8-methoxy-4-oxoquinoline-3-carboxylic acid]
Number of death [1, 15]: same result
MIC [2]: 0.006 µg/mL (≈ 0.0137 µM)
MIC [3]: 0.05 µg/mL (≈ 0.114 µM)
MIC [4]: 0.10 µg/mL (≈ 0.229 µM)
MIC [5]: ≦0.003 μg/ml
MIC [6]: 0.006 µg/mL (≈ 0.0137 µM)
MIC ([7]; S. flexneli, 2A 5503): 0.006 µg/mL (≈ 0.0137 µM)
MIC [8]: 0.013 µg/mL (≈ 0.0297 µM)
MIC [9]: 0.20 µg/mL (≈ 0.457 µM)
MIC [10]: 0.10 µg/mL (≈ 0.229 µM)
MIC [11]: 0.20 µg/mL (≈ 0.457 µM)
MIC [12]: 0.025 µg/mL (≈ 0.0572 µM)
MIC [13]: ≦0.003 μg/ml
MIC [14]: 0.025 µg/mL (≈ 0.0572 µM)

C[C@H]1COc2c(N3C[C@@H](F)[C@@H](C4(N)CC4)C3)c(F)cc3c(=O)c(C(=O)O)cn1c23.Cl [Example 6, 10-[4-(R)-(1-Aminocyclopropyl)-3-(S)-fluoro-1-pyrrolidinyl]-9-fluoro-2,3-dihydro-3-(S)-methyl-7-oxo-7H-pyrido[1,2,3-de][1,4]benzoxazine-6-carboxylic acid hydrochloride]
MIC [2, 16]: 0.01 µg/mL
MIC [3, 17]: 0.1 µg/mL
MIC [4, 18]: 0.1 µg/mL
MIC [5, 19]: 0.006 µg/mL
MIC [6, 20]: 0.025 µg/mL
MIC [7]: 0.01 µg/mL
MIC [8, 21]: 0.025 µg/mL
MIC [9, 22]: 0.39 µg/mL
MIC [10, 22]: 0.1 µg/mL
MIC [11, 23]: 0.39 µg/mL
MIC [12, 24]: 0.05 µg/mL
MIC [13, 25]: 0.01 µg/mL
MIC [14, 19]: 0.2 µg/mL

C[C@H]1COc2c(N3C[C@@H](F)[C@@H](C4(N)CC4)C3)c(F)c(N)c3c(=O)c(C(=O)O)cn1c23 [Example 8, 8-Amino-10-[4-(R)-(1-aminocyclopropyl)-3-(S)-fluoro-1-pyrrolidinyl]-9-fluoro-2,3-dihydro-3-(S)-methyl-7-oxo-7H-pyrido[1,2,3-de][1,4]benzoxazine-6-carboxylic acid]
Number of death [1, 15]: same result
MIC [2, 16]: 0.025 µg/mL (≈ 0.0595 µM)
MIC [3, 17]: 0.1 µg/mL (≈ 0.238 µM)
MIC [4, 18]: 0.2 µg/mL (≈ 0.476 µM)
MIC [5, 19]: 0.006 µg/mL (≈ 0.0143 µM)
MIC [6, 20]: 0.1 µg/mL (≈ 0.238 µM)
MIC [7]: 0.013 µg/mL (≈ 0.0309 µM)
MIC [8, 21]: 0.013 µg/mL (≈ 0.0309 µM)
MIC [9, 22]: 0.39 µg/mL (≈ 0.928 µM)
MIC [10, 22]: 0.2 µg/mL (≈ 0.476 µM)
MIC [11, 23]: 0.39 µg/mL (≈ 0.928 µM)
MIC [12, 24]: 0.05 µg/mL (≈ 0.119 µM)
MIC [13, 25]: 0.006 µg/mL (≈ 0.0143 µM)
MIC [14, 19]: 0.2 µg/mL (≈ 0.476 µM)

Cc1c(N2C[C@H](F)[C@@H](C3(N)CC3)C2)c(F)c(N)c2c(=O)c(C(=O)O)cn([C@@H]3C[C@@H]3F)c12 [trans, 5-amino-7-[4-(R)-(1-aminocyclopropyl)-3-(R)-fluoro-1-pyrrolidinyl]-6-fluoro-1-(2-(S)-fluoro-1-(R)-cyclopropyl]-1,4-dihydro-8-methyl-4-oxoquinoline-3-carboxylic acid, reference compound]
Number of death ([1]; 50 mg/kg intravenously, five per group): 0/5
Number of death ([1]; 100 mg/kg intravenously, test stopped at second death): 2/2*
Number of death [1, 15]: 2/2*
